Results published in the supplement of paper PMC10307832.

How the values were obtained:
Assay in all cases: relative viability (nuclei count vs DMSO), 5 days (fraction); higher = more cells survive
Carfilzomib + Bortezomib = compound: CC(C)C[C@H](NC(=O)[C@H](CCc1ccccc1)NC(=O)CN1CCOCC1)C(=O)N[C@@H](Cc1ccccc1)C(=O)N[C@@H](CC(C)C)C(=O)[C@@]1(C)CO1 [Carfilzomib] + CC(C)C[C@H](NC(=O)[C@H](Cc1ccccc1)NC(=O)c1cnccn1)B(O)O [Bortezomib] (partner 0.002 µM)
Procedure, shortened: (§1)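 Nuclei were stained with Hoechst during a one-step fixation (final 0.05% Triton X-100, 1% formaldehyde, 1 ug/ml Hoechst) carried out 5 days after dosing, then counted on 4× images. The cells, lung cancer lines in 1536-well plates, had been dosed by pin tool the day after seeding with one drug alone or a fixed anchor-drug dose plus five library-drug doses (not always all listed) in √10 steps. Relative viability is the nuclei count in treated wells divided by that in vehicle wells, and each value is the median of duplicate plates.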

Crizotinib + Pemetrexed = compound: C[C@@H](Oc1cc(-c2cnn(C3CCNCC3)c2)cnc1N)c1c(Cl)ccc(F)c1Cl [Crizotinib] + Nc1nc2[nH]cc(CCc3ccc(C(=O)N[C@@H](CCC(=O)O)C(=O)O)cc3)c2c(=O)[nH]1 [Pemetrexed] (partner 0.2 µM)
Procedure, shortened: as §1

Olaparib + Foretinib = compound: O=C(c1cc(Cc2n[nH]c(=O)c3ccccc23)ccc1F)N1CCN(C(=O)C2CC2)CC1 [Olaparib] + COc1cc2c(Oc3ccc(NC(=O)C4(C(=O)Nc5ccc(F)cc5)CC4)cc3F)ccnc2cc1OCCCN1CCOCC1 [Foretinib] (partner 0.25 µM)
Procedure, shortened: as §1

Olaparib + Decitabine = compound: O=C(c1cc(Cc2n[nH]c(=O)c3ccccc23)ccc1F)N1CCN(C(=O)C2CC2)CC1 [Olaparib] + Nc1ncn([C@H]2C[C@H](O)[C@@H](CO)O2)c(=O)n1 [Decitabine] (partner 2 µM)
Procedure, shortened: as §1

| Cell Line | relative viability (Carfilzomib + Bortezomib; first compound 0.001 µM) | relative viability (Carfilzomib + Bortezomib; first compound 0.003162 µM) | relative viability (Carfilzomib + Bortezomib; first compound 0.01 µM) | relative viability (Carfilzomib + Bortezomib; first compound 0.03162 µM) | relative viability (Carfilzomib + Bortezomib; first compound 0.1 µM) | relative viability (Crizotinib + Pemetrexed; first compound 0.01 µM) | relative viability (Crizotinib + Pemetrexed; first compound 0.03162 µM) | relative viability (Crizotinib + Pemetrexed; first compound 0.1 µM) | relative viability (Crizotinib + Pemetrexed; first compound 0.3162 µM) | relative viability (Crizotinib + Pemetrexed; first compound 1 µM) | relative viability (Olaparib + Foretinib; first compound 0.08 µM) | relative viability (Olaparib + Foretinib; first compound 0.253 µM) | relative viability (Olaparib + Foretinib; first compound 2.53 µM) | relative viability (Olaparib + Foretinib; first compound 8 µM) | relative viability (Olaparib + Decitabine; first compound 0.08 µM) | relative viability (Olaparib + Decitabine; first compound 0.253 µM) | relative viability (Olaparib + Decitabine; first compound 2.53 µM) | relative viability (Olaparib + Decitabine; first compound 8 µM) |
| --- | --- | --- | --- | --- | --- | --- | --- | --- | --- | --- | --- | --- | --- | --- | --- | --- | --- | --- |
| 201T | 1.09 | 1.06 | 1.1 | 1.09 | 0.732 | 0.296 | 0.279 | 0.32 | 0.324 | 0.331 | 1.19 | 1.12 | 1.07 | 1.05 | 0.819 | 0.68 | 0.611 | 0.632 |
| A549 | – | – | – | – | – | – | – | – | – | – | 0.996 | 0.774 | 0.872 | 0.548 | 0.119 | 0.073 | 0.0622 | 0.0462 |
| A-427 | 0.995 | 0.963 | 0.727 | 0.436 | 0.131 | 0.967 | 0.954 | 0.957 | – | – | 1.03 | 1.01 | 0.769 | 0.834 | 0.471 | 0.478 | 0.483 | 0.404 |
| ABC-1 | 0.334 | 0.231 | 0.242 | 0.27 | 0.225 | – | – | – | – | – | 1.09 | 1.31 | 0.98 | 0.922 | 1.07 | – | 0.836 | 0.718 |
| BEN | 0.518 | 0.929 | 0.883 | 0.485 | 0.281 | 0.726 | 0.741 | 0.739 | 0.596 | 0.702 | – | 0.529 | 0.688 | 0.702 | 0.654 | 0.55 | 0.639 | 0.641 |
| CAL-12T | – | 1.17 | 1.13 | 0.691 | 0.195 | 1.09 | 1.09 | 1.06 | 1.19 | 1.02 | 1.24 | 0.984 | 1.07 | 0.928 | – | – | – | – |
| COR-L23 | 0.94 | 0.877 | 0.253 | 0.0785 | 0.0696 | 0.19 | 0.189 | 0.201 | 0.207 | 0.199 | 1.08 | 0.842 | 0.797 | 0.567 | 0.353 | 0.266 | 0.216 | 0.199 |
| COR-L 105 | 0.724 | 0.658 | 0.527 | 0.265 | 0.239 | 1.04 | 1.16 | 1 | 1.24 | 1.07 | 1.37 | 0.988 | 0.807 | 0.835 | 0.581 | 0.618 | 0.52 | 0.512 |
| Calu-6 | 0.886 | 0.713 | 0.299 | 0.119 | 0.106 | – | – | – | – | – | 0.892 | 0.789 | 0.855 | 0.536 | – | – | – | – |
| ChaGo-K-1 | – | 1.25 | 0.851 | 0.501 | 0.381 | 0.253 | 0.249 | 0.253 | 0.241 | 0.261 | 0.872 | 0.868 | 0.763 | 0.608 | 0.45 | 0.43 | 0.355 | 0.329 |
| EBC-1 | 0.524 | 0.317 | 0.149 | 0.119 | 0.168 | – | – | – | – | – | 0.116 | 0.094 | 0.1 | 0.107 | – | – | – | – |
| EKVX | 1.03 | 1.08 | 1.14 | 0.285 | 0.345 | 0.362 | 0.414 | 0.404 | 0.383 | 0.327 | 1.03 | 1 | 0.294 | 1.01 | 0.238 | 0.276 | 0.337 | 0.276 |
| EMC-BAC-2 | 1.03 | 1.06 | 1.07 | 0.66 | 0.448 | 0.442 | 0.419 | 0.444 | – | 0.448 | 1.05 | 0.998 | 0.953 | 0.655 | 0.931 | 0.869 | 0.669 | 0.599 |
| EPLC-272H | 0.738 | 0.626 | 0.655 | 0.105 | 0.0698 | 0.298 | 0.355 | 0.397 | 0.37 | 0.402 | 0.764 | 0.582 | 0.729 | 0.64 | 0.478 | 0.349 | 0.302 | 0.329 |
| H3255 | 0.765 | 0.769 | 0.841 | 0.315 | 0.179 | 0.556 | 0.553 | 0.592 | 0.54 | 0.557 | 0.942 | 0.792 | 0.901 | 0.872 | 0.548 | 0.516 | 0.621 | 0.444 |
| HARA | 1.2 | 1.05 | 0.394 | 0.0539 | 0.0619 | 0.222 | 0.242 | 0.257 | 0.183 | 0.236 | 0.97 | 0.807 | 0.951 | 0.695 | 0.437 | 0.397 | 0.396 | 0.338 |
| HCC-15 | 0.979 | 0.978 | 1.01 | 0.481 | 0.0765 | 0.234 | 0.222 | 0.233 | 0.209 | 0.213 | 1.23 | 0.95 | 1.07 | 0.868 | 0.682 | 0.479 | 0.463 | 0.344 |
| HCC-44 | 0.876 | 0.917 | 0.897 | 0.552 | 0.147 | 0.603 | 0.648 | 0.689 | 0.593 | 0.665 | – | – | – | – | 0.812 | 0.846 | 0.783 | 0.802 |
| HCC-78 | 0.474 | 0.514 | 0.402 | 0.192 | 0.193 | 0.88 | 0.865 | 0.889 | 0.855 | – | 0.622 | 0.562 | 0.557 | 0.514 | 0.613 | 0.562 | 0.508 | 0.455 |
| HCC-366 | 0.891 | 0.966 | 1.07 | 0.196 | 0.0175 | 0.166 | 0.154 | 0.167 | – | 0.202 | 0.875 | 0.908 | 0.889 | 0.636 | 0.186 | 0.144 | 0.0931 | 0.113 |
